Source: US10583173B2, “Methods of treating or preventing pruritis by blocking natriuretic polypeptide b” (priority 2013, dated 2020)
Where no end group is shown, it is not given here.

Key:
Type in all cases: in vivo, mouse
[1] = system: mice; test: Scratching after intrathecal injection of GRP
Text: (§1) All experiments using animals followed NIH guidelines and were approved by the National Institute of Dental and Craniofacial ACUC. The targeted JM8A3 ES-cell clone A04 with disruption of the Nppb gene was obtained from Mouse Biology Program (MBP), UC Davis and was used to generate chimeric mice. Chimeras were crossed with C57BL/6 mice and heterozygous offspring were mated to generate paired knockouts and controls. Transgenic (Tg) (gastrin releasing peptide (GRP)-enhanced green fluorescent protein (EGFP)) animals (Gong et al., Nature, 425:917 (2003)) were employed to localize expression of GRP. Male C57BL/6 (8-14 weeks) mice were used for selective toxin ablation and GRP-antagonist itch experiments. Ablation of Npra and GRP-receptor-expressing spinal cord interneurons was accomplished by intrathecal (segment L3/4) injection of Nppb-saporin (5 μg in 10 μl; Advanced targeting Systems, San Diego, Calif.) and GRP-saporin (2.5 μg) respectively. Experiments were initiated two weeks after toxin injection.
(§2) Pretreatment with GRP antagonist deamino-Phe19,D-Ala24,D-Pro26-D-Phe27-GRP (Yegen et al., Regulatory Peptides, 61:175 (1996)) (1 nM in 10 μl) was used to block GRP-receptor.
(§3) How Nppb induces this stereotyped scratch response was investigated. It was hypothesized that because this peptide is prominently expressed in somatosensory neurons, the most plausible explanation for its role would be if it acted as a specific itch-related neuromodulator (or neurotransmitter) in the spinal cord. […] Intrathecal injection of Nppb into Nppb^−/− mice also led to an equivalent phenotype (FIG. 1E). No significant differences in response between genotypes were found (Student's t-test). Loss of Nppb in sensory afferents was thus responsible for the pruriceptive deficits seen in mutant mice. Without being bound to a particular theory or mechanism, it is believed that Nppb-expression delineates the subset of somatosensory neurons that detect pruritic agents and that central release of Nppb from these neurons is necessary for the itch response.

[2] = system: Wild-type mice (C57BL/6); test: Scratching after intravenous administration of natriuretic peptides (ivNppb)
Experimental: Elevated blood Nppb is found in kidney disalysis patients. Accordingly, the effect of elevated blood Nppb on itching in mice was evaluated. Wild-type mice (C57BL/6) were intravenously administered Nppb and were untreated or treated with GRP-antagonist or Nppb saporin. The bouts of scratching were counted.
Nppb deficient or wild-type (C57BL/6) mice were intravenously (i.v.) administered Nppb, Nppa, or Nppc, and the bouts of scratches were measured.
To mimic the high concentration of Nppb found in renal itch patients, mice were i.v. administered Nppb (via tail vein injection). […] Approximately ten minutes after administration of Nppb, mice began to persistently scratch their flank, face, hind quarters and abdomens. This behavior slowly diminished and almost completely ceased approximately 1 hour after injection. The induction of scratching was dose dependent, with a 1.2 μg/kg dose producing saturating behavioral responses. In all subsequent experiments, a dose of 1.2 μg/kg Nppb (abbreviated as “ivNppb”) was used, and bouts of scratching were counted over a period of 1 hour.
Npra neurons themselves express GRP and are thought to release GRP which, in turn, activates GRPR-cells.

[3] = system: Wild-type mice (C57BL/6); test: Histamine-induced scratching (bouts of scratching after intradermal histamine); conditions: intradermal histamine 100 μg in 10 μl, scratching bouts over 30 minutes, vs histamine alone/untreated
Text: as §1
(§4) Itch inducing substances (see Table 1) were injected intradermally into the shoulder of mice and numbers of scratching bouts assessed over 30 minutes. […] Table 1 also indicates the receptors or mechanisms believed to be activated by the various compounds in the itch response pathway.
as §2
Wild-type mice (C57BL/6) were administered histamine alone, a combination of histamine and a GRP antagonist, or a combination of histamine and anantin. […] to another receptor in the itch pathway and was used as a control. Bouts of scratching were counted.

[4] = system: mice; test: Scratching after lumbar intrathecal injection of Nppb
Text: as §1, §2, §3

[5] = system: neurons in the dorsal root ganglion (DRG) and superficial dorsal horn (sDH); test: Immediate early gene induction (Egr1 in DRG, cFos in sDH) by ISH
Experimental: To gain additional evidence that systemic Nppb activates a central itch pathway, the pattern of cellular activation of neurons in the dorsal root ganglion (DRG) and superficial dorsal horn (sDH) was compared by analyzing induction of immediate early gene expression. The skin was stimulated by pruritogen and injections of noxious compounds and the robust induction of immediate early genes, Egr1 and cFos (in the DRG and sDH respectively) was evaluated. Intradermal injection of chloroquine was utilized to excite MrgprA3 peripheral DRG neurons. […] The number of positive Egr-1-positive cells correlated well with the previously reported numbers of MrgprA3-expressing receptor neurons in DRG. […] Therefore, the initial and later cellular stages of the pruriceptive neural pathway could be reliably monitored biochemically and anatomically and itch signaling could be distinguished from that elicited by the noxious agent formalin.
It was reasoned that if ivNppb was directly activating centrally, then induction of immediate early gene expression would be seen in sDH-neurons and not DRG neurons. […] As expected from the generalized scratching responses evoked by ivNppb, in both hemispheres of the spinal cord and along the entire length of the spinal cord, cFos-activated neurons could be detected. Furthermore, also consistent with the itch-behavioral result, the profile of cFos-activated neurons in the sDH was similar to that generated by epidermal injection of chloroquine.

[6] = system: mice; test: Scratching after intradermal injection of pruritogens; conditions: control (wild-type) animals; doses of Table 1
Experimental: as §4
Intradermal injections were performed. The number of scratching bouts for substances that directly activate pruriceptors was recorded. The number of scratching bouts after injection with compound 48/80, which causes itch via an indirect route (McNeil et al., Neuroscience Bulletin, 28:100 (2012)), was also recorded. All of these agents (Table 1) reliably triggered multiple bouts of scratching in control animals (FIG. 1D), but Nppb^−/− mice were almost completely insensitive to the full range of pruritic substances tested (FIG. 1D).

[7] = lumbar 4-5 segment intrathecal injection

Compound: GRP: gastrin releasing peptide (APVSTGAGGGTVLAKMYPRGSHWAVGHLM; ends and bridges not checked; UniProt Q8R1I2 24-52, looked up)
- itch responses induced by intrathecal injection of the peptide ([1]; GRP 1 nM in 10 μl, mutant and control animals): triggered itch responses
- onset of pruriceptive response after intrathecal GRP [1, 7]: ~5 min

Compound: Nppc: C-type natriuretic peptide, selective agonist for natriuretic peptide receptor Nprb (GLSKGCFGLKLDRIGSMSGLGC; ends and bridges not checked; cysteine pairing not given here; UniProt Q61839 105-126, looked up)
- scratching/itch induced by i.v. administration of the peptide ([2]; i.v. (tail vein), listed as C-type natriuretic peptide): produced no observable reaction
- scratching/itch induced by i.v. administration of the peptide ([2]; i.v. tail vein): did not induce significant itch

Compound: deamino-Phe19,D-Ala24,D-Pro26-D-Phe27-GRP [GRP antagonist]
- bouts of scratching after histamine injection, effect of treatment [3]: attenuated scratching
- bouts of scratching after histamine injection, effect of treatment ([3]; listed as GRP-antagonist): statistically different
- scratching induced by lumbar intrathecal injection of Nppb, effect of pretreatment ([4]; Nppb 5 μg in 10 μl intrathecal, vs untreated mice): strongly attenuated
- scratching induced by intrathecal GRP, effect of pretreatment ([1]; GRP 1 nM in 10 μl intrathecal, vs untreated mice): attenuated scratching
- i.v. Nppb-induced itch, effect of pretreatment ([2]; i.v. Nppb, bouts of scratching, vs untreated): blocked

Compound: anantin
- bouts of scratching after histamine injection, effect of treatment [3]: attenuated histamine-induced itch
- bouts of scratching after histamine injection, effect of treatment ([3]; listed as Anantin): statistically different

Compound: Nppb
- scratching induced by intrathecal injection of the peptide ([4]; Nppb 5 μg in 10 μl, lumbar 4-5 segment, control and Nppb−/− mice): induced repeated bouts of scratching
- onset of pruriceptive response after intrathecal Nppb [4, 7]: ~5 min
- scratching/itch induced by i.v. administration of the peptide ([2]; i.v. tail vein): robust whole body scratching behavior
- time after i.v. administration at which persistent scratching began ([2]; i.v. tail vein): Approximately ten
- time after i.v. injection at which scratching almost completely ceased ([2]; i.v. tail vein): approximately 1 hour
- dose producing saturating behavioral responses (scratching) ([2]; i.v., dose dependent): 1.2 µg/kg
- Egr1 expression in DRG neurons [5]: did not induce expression of Egr1
- cFos induction in superficial dorsal horn (sDH) neurons [5]: caused cFos induction

Compound: C=O [formalin]
- Egr1 expression in DRG neurons [5]: induced Egr-1 expression in a far larger number
- cFos induction in superficial dorsal horn (sDH) neurons [5]: induced cFos expression

Compound: CCN(CC)CCCC(C)Nc1ccnc2cc(Cl)ccc12 (stereo not drawn) [chloroquine]
- Egr1 expression in DRG neurons [5]: induced Egr1 expression
- cFos induction in superficial dorsal horn (sDH) neurons [5]: induced cFos expression
- scratching / itch-behavior after intradermal injection of pruritic agent [6]: triggered itch-behavior
